In one assay the target is T1, TrkA (Streptococcus mitis, UniProt A0ACG7RC27).
T1 construct: gene SM12261_0089; full-length ORF (1-221 aa), N-terminal 6xHis tag kept, pET30b, E. coli BL21(DE3); Ni-NTA + SEC; two bands on SDS-PAGE, both TrkA by MS; MS peptide positions up to 227 include the tag
T1 sequence (A0ACG7RC27 1-221): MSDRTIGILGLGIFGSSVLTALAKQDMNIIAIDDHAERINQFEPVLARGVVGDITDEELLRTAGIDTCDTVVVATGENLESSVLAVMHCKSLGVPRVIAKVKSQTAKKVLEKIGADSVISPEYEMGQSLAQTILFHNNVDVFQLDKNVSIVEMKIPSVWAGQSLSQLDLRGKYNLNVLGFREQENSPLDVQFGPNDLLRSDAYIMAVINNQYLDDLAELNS
The experiment in a line: nanoDSF, isothermal FoldAffinity fit. In kind it is binding. As to conditions: 500 nM TrkA, 150 mM KCl, 20 mM HEPES, 10% glycerol, pH 7.5. An excerpt:
nanoDSF, isothermal FoldAffinity fit on TrkA
(In general: DSF heats the sample and reads unfolding from a dye or from intrinsic fluorescence.)

Assay [1] has as its target TrkA of Streptococcus mitis CCUG31611 (SM12261_0089), recombinant with N-terminal 6x His-tag (Streptococcus mitis CCUG31611). The experiment in a line: SEC; Sepharose 6 Increase 10-300 GL column, AKTA pure; 150 mM KCl, 20 mM HEPES, pH 7.5; flow 0.2 ml/min; MW estimated from a standard curve of gel filtration markers (12,000-200,000 Da), logMW vs VE/V0.
Setting [2] is: Tiso 52 °C, unreliable (above the highest ligand concentration, 500 µM).

As for `Nc1ncnc2c1ncn2[C@@H]1O[C@H](COP(=O)(O)O[C@H]2[C@@H](O)[C@H](n3cnc4c(N)ncnc43)O[C@@H]2COP(=O)(O)O)[C@@H](O)[C@H]1O` [pApA], at TrkA (setting [2]), the “Kd,app (μM)‡” value is 1,650.000 ± 494.975 µM.
For the molecule `Nc1ncnc2c1ncn2[C@@H]1O[C@H](COP(=O)(O)O)[C@@H](O)[C@H]1O` [AMP], the “Kd,app (μM)‡” value at TrkA (Tiso 54 °C, unreliable (above the highest ligand concentration, 500 µM)) is 2,050.000 ± 494.975 µM.
With `Nc1nc2c(ncn2[C@@H]2O[C@@H]3COP(=O)(O)O[C@H]4[C@@H](O)[C@H](n5cnc6c(=O)[nH]c(N)nc65)O[C@@H]4COP(=O)(O)O[C@H]3[C@H]2O)c(=O)[nH]1` [c-di-GMP], the “Kd,app (μM)‡” value at TrkA (Tiso 54 °C, unreliable (far above the highest ligand concentration, 500 µM)) is given as 100,000.000 ± 0.000 µM.
In the case of “TrkA of Streptococcus mitis CCUG31611 (SM12261_0089), recombinant with N-terminal 6x His-tag (natural protein)”, the stoichiometry N in assay [1] was 8.
Consider `Nc1ncnc2c1ncn2[C@@H]1O[C@H](COP(=O)(O)OP(=O)(O)OP(=O)(O)O)[C@@H](O)[C@H]1O` [ATP], for which the “Kd,app (μM)‡” value on TrkA (setting [2]) is listed as 2,610.000 ± 2390.021 µM.

The term stoichiometry N denotes the number of molecules, sites or subunits per partner or assembly.

Source of the values: paper PMC12453120, “TrkA of Streptococcus mitis CCUG31611 binds cyclic di-adenosine monophosphate and is required for growth in low potassium conditions” (Microbiology, 2025).
